Data reported in patent publication US20170037028A1 (BAYER PHARMA AKTIENGESELLSCHAFT, priority 2013, published 2017).

Molecular target: T1, GLUT1 (Homo sapiens, UniProt P11166)
T1 sequence (P11166 1-492): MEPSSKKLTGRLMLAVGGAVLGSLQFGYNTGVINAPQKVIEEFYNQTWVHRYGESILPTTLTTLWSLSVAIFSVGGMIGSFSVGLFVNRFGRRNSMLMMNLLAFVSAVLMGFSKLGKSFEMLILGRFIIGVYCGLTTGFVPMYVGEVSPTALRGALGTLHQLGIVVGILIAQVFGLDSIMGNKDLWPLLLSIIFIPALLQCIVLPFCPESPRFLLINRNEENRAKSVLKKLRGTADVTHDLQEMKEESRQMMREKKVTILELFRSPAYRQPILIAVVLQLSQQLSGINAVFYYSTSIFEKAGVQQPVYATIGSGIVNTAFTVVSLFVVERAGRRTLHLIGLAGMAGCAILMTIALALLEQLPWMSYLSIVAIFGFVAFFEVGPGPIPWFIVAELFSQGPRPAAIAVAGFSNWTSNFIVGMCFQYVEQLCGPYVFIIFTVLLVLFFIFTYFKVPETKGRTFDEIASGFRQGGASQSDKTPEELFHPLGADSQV
Assay: Indirect measurement of GLUT1 activity by quantification of intracellular ATP levels (glucose induced ATP increase)
Type: cell-based
Design: endogenous in cells; host or cells: DLD1 or CHO-K1
Conditions: read-out: IC50 regarding glucose induced ATP increase (GLUT1 inhibition)
Procedure, shortened: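 DLD1 or CHO-K1 cells were starved overnight in glucose-free medium with 1% FCS, then combined with an oxidative phosphorylation inhibitor. GLUT1 activity was read as glucose-induced ATP increase, GLUT2 as fructose-induced. Intracellular ATP was quantified by CellTiter-Glo luminescence.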

| SMILES | IC50 [nM] |
| --- | --- |
| Cc1c(NC(=O)c2cc(C(N)=O)nc3cc(F)ccc23)c(C(F)(F)F)nn1Cc1ccc(C(=O)NCCO)cc1 [Example 375, 7-fluoro-N^4-[1-{4-[(2-hydroxyethyl)carbamoyl]benzyl}-5-methyl-3-(trifluoromethyl)-1H-pyrazol-4-yl]quinoline-2,4-dicarboxamide] | 123 |
| Cc1nn(Cc2ccc(C#N)cc2)c(C)c1NC(=O)c1cc(Br)nc2ccccc12 [Example 380, 2-bromo-N-[1-(4-cyanobenzyl)-3,5-dimethyl-1H-pyrazol-4-yl]quinoline-4-carboxamide] | 45.9 |
| CSc1cc(C(=O)Nc2c(C)nn(Cc3ccc(C#N)cc3)c2C)c2ccccc2n1 [Example 381, N-[1-(4-cyanobenzyl)-3,5-dimethyl-1H-pyrazol-4-yl]-2-(methylsulfanyl)quinoline-4-carboxamide] | 9 |
| CSc1cc(C(=O)Nc2c(C(F)(F)F)nn(Cc3ccc(C#N)cc3)c2C)c2ccccc2n1 [Example 382, N-[1-(4-cyanobenzyl)-5-methyl-3-(trifluoromethyl)-1H-pyrazol-4-yl]-2-(methylsulfanyl)quinoline-4-carboxamide] | 26.1 |
| Cc1c(NC(=O)c2cc(S(C)(=O)=O)nc3ccccc23)c(C(F)(F)F)nn1Cc1ccc(C#N)cc1 [Example 384, N-[1-(4-cyanobenzyl)-5-methyl-3-(trifluoromethyl)-1H-pyrazol-4-yl]-2-(methylsulfonyl)quinoline-4-carboxamide] | 3.6 |
| Cc1nn(Cc2ccc(C#N)cc2)c(C(F)(F)F)c1NC(=O)c1cc(C(N)=O)nc2cc(F)ccc12 [Example 389, N^4-[1-(4-cyanobenzyl)-3-methyl-5-(trifluoromethyl)-1H-pyrazol-4-yl]-7-fluoroquinoline-2,4-dicarboxamide] | 1.9 |
| Cc1nn(Cc2c(F)cc(C#N)cc2F)c(C)c1NC(=O)c1cc(C(N)=O)nc2cc(F)ccc12 [Example 390, N^4-[1-(4-cyano-2,6-difluorobenzyl)-3,5-dimethyl-1H-pyrazol-4-yl]-7-fluoroquinoline-2,4-dicarboxamide] | 5.5 |
| Cc1nn(Cc2c(F)cc(C#N)cc2F)c(C)c1NC(=O)c1cc(C(N)=O)nc2ccccc12 [Example 391, N^4-[1-(4-cyano-2,6-difluorobenzyl)-3,5-dimethyl-1H-pyrazol-4-yl]quinoline-2,4-dicarboxamide] | 7 |
| Cc1nn(Cc2c(F)cc(C#N)cc2F)c(C)c1NC(=O)c1cc(C(N)=O)nc2cc(F)c(Cl)cc12 [Example 392, 6-chloro-N^4-[1-(4-cyano-2,6-difluorobenzyl)-3,5-dimethyl-1H-pyrazol-4-yl]-7-fluoroquinoline-2,4-dicarboxamide] | 21.6 |
| Cc1nn(Cc2c(F)cc(C#N)cc2F)c(C)c1NC(=O)c1cc(C(N)=O)nc2cccc(F)c12 [Example 393, N^4-[1-(4-cyano-2,6-difluorobenzyl)-3,5-dimethyl-1H-pyrazol-4-yl]-5-fluoroquinoline-2,4-dicarboxamide] | 4.1 |
| Cc1nn(Cc2c(F)cc(C#N)cc2F)c(C)c1NC(=O)c1cc(C(N)=O)nc2ccc(Br)cc12 [Example 394, 6-bromo-N^4-[1-(4-cyano-2,6-difluorobenzyl)-3,5-dimethyl-1H-pyrazol-4-yl]quinoline-2,4-dicarboxamide] | 2.6 |
| Cc1c(NC(=O)c2cc(C(N)=O)nc3cc(F)ccc23)c(C(F)(F)F)nn1Cc1c(F)cc(C#N)cc1F [Example 395, N^4-[1-(4-cyano-2,6-difluorobenzyl)-5-methyl-3-(trifluoromethyl)-1H-pyrazol-4-yl]-7-fluoroquinoline-2,4-dicarboxamide] | 5.3 |
| Cc1c(NC(=O)c2cc(C(N)=O)nc3ccccc23)c(C(F)(F)F)nn1Cc1c(F)cc(C#N)cc1F [Example 396, N^4-[1-(4-cyano-2,6-difluorobenzyl)-5-methyl-3-(trifluoromethyl)-1H-pyrazol-4-yl]quinoline-2,4-dicarboxamide] | 15.9 |
| Cc1c(NC(=O)c2cc(C(N)=O)nc3cccc(F)c23)c(C(F)(F)F)nn1Cc1c(F)cc(C#N)cc1F [Example 397, N^4-[1-(4-cyano-2,6-difluorobenzyl)-5-methyl-3-(trifluoromethyl)-1H-pyrazol-4-yl]-5-fluoroquinoline-2,4-dicarboxamide] | 7.5 |
| Cc1c(NC(=O)c2cc(C(N)=O)nc3cc(F)c(Cl)cc23)c(C(F)(F)F)nn1Cc1c(F)cc(C#N)cc1F [Example 398, 6-chloro-N^4-[1-(4-cyano-2,6-difluorobenzyl)-5-methyl-3-(trifluoromethyl)-1H-pyrazol-4-yl]-7-fluoroquinoline-2,4-dicarboxamide] | 5.5 |
| Cc1c(NC(=O)c2cc(C(N)=O)nc3ccc(Br)cc23)c(C(F)(F)F)nn1Cc1c(F)cc(C#N)cc1F [Example 399, 6-bromo-N^4-[1-(4-cyano-2,6-difluorobenzyl)-5-methyl-3-(trifluoromethyl)-1H-pyrazol-4-yl]quinoline-2,4-dicarboxamide] | 4.5 |
| Cc1c(NC(=O)c2cc(C(N)=O)nc3cc(F)ccc23)c(C(F)(F)F)nn1Cc1ccc(-c2nnn[nH]2)cc1 [Example 400, 7-fluoro-N^4-{5-methyl-1-[4-(1H-tetrazol-5-yl)benzyl]-3-(trifluoromethyl)-1H-pyrazol-4-yl}quinoline-2,4-dicarboxamide] | 1260 |
| COCc1ccc(Cn2nc(C(F)(F)F)c(NC(=O)c3cc(C(N)=O)nc4cc(F)ccc34)c2C)cc1 [Example 401, 7-fluoro-N^4-{1-[4-(methoxymethyl)benzyl]-5-methyl-3-(trifluoromethyl)-1H-pyrazol-4-yl}quinoline-2,4-dicarboxamide] | 10 |
| COCc1ccc(Cn2nc(C(F)(F)F)c(NC(=O)c3cc(C(N)=O)nc4cccc(F)c34)c2C)cc1 [Example 402, 5-fluoro-N^4-{1-[4-(methoxymethyl)benzyl]-5-methyl-3-(trifluoromethyl)-1H-pyrazol-4-yl}quinoline-2,4-dicarboxamide] | 6.7 |
| Cc1c(NC(=O)c2cc(C(N)=O)nc3cc(F)ccc23)c(C(F)(F)F)nn1Cc1ccc(CC#N)cc1 [Example 403, N^4-{1-[4-(cyanomethyl)benzyl]-5-methyl-3-(trifluoromethyl)-1H-pyrazol-4-yl}-7-fluoroquinoline-2,4-dicarboxamide] | 1 |
| CNC(=O)c1nc(Cn2nc(C)c(NC(=O)c3cc(C(F)(F)F)nc4ccc(Br)cc34)c2C)no1 [Example 404, 6-bromo-N-(3,5-dimethyl-1-{[5-(methylcarbamoyl)-1,2,4-oxadiazol-3-yl]methyl}-1H-pyrazol-4-yl)-2-(trifluoromethyl)quinoline-4-carboxamide] | 1.4 |
| Cc1nn(CC2CCN(C(=O)OC(C)(C)C)CC2)c(C)c1NC(=O)c1cc(C(N)=O)nc2ccccc12 [Example 405, tert-butyl 4-[(4-{[(2-carbamoylquinolin-4-yl)carbonyl]amino}-3,5-dimethyl-1H-pyrazol-1-yl)methyl]piperidine-1-carboxylate] | 242 |
| Cc1nn(CC2CCNCC2)c(C)c1NC(=O)c1cc(C(N)=O)nc2ccccc12 [Example 406, N^4-[3,5-dimethyl-1-(piperidin-4-ylmethyl)-1H-pyrazol-4-yl]quinoline-2,4-dicarboxamide] | 1530 |
| CCS(=O)(=O)N1CCC(Cn2nc(C)c(NC(=O)c3cc(C(N)=O)nc4ccccc34)c2C)CC1 [Example 407, N^4-(1-{[1-(ethylsulfonyl)piperidin-4-yl]methyl}-3,5-dimethyl-1H-pyrazol-4-yl)quinoline-2,4-dicarboxamide] | 2.1 |
| Cc1cc(Cn2nc(C(F)(F)F)c(NC(=O)c3cc(C(N)=O)nc4cc(F)c(Cl)cc34)c2C)no1 [Example 408, 6-chloro-7-fluoro-N^4-{5-methyl-1-[(5-methyl-1,2-oxazol-3-yl)methyl]-3-(trifluoromethyl)-1H-pyrazol-4-yl}quinoline-2,4-dicarboxamide] | 7.8 |
| CCc1nc(Cn2nc(C(F)(F)F)c(NC(=O)c3cc(C(N)=O)nc4cc(F)c(Cl)cc34)c2C)no1 [Example 409, 6-chloro-N^4-{1-[(5-ethyl-1,2,4-oxadiazol-3-yl)methyl]-5-methyl-3-(trifluoromethyl)-1H-pyrazol-4-yl}-7-fluoroquinoline-2,4-dicarboxamide] | 5.5 |
| CCc1cc(Cn2nc(C(F)(F)F)c(NC(=O)c3cc(C(N)=O)nc4cc(F)c(Cl)cc34)c2C)on1 [Example 410, 6-chloro-N^4-{1-[(3-ethyl-1,2-oxazol-5-yl)methyl]-5-methyl-3-(trifluoromethyl)-1H-pyrazol-4-yl}-7-fluoroquinoline-2,4-dicarboxamide] | 8.9 |
| Cc1cc(Cn2nc(C)c(NC(=O)c3cc(C(N)=O)nc4cc(F)c(Cl)cc34)c2C)on1 [Example 411, 6-chloro-N^4-{3,5-dimethyl-1-[(3-methyl-1,2-oxazol-5-yl)methyl]-1H-pyrazol-4-yl}-7-fluoroquinoline-2,4-dicarboxamide] | 1.1 |
| Cc1cc(Cn2nc(C)c(NC(=O)c3cc(C(N)=O)nc4cc(F)c(Cl)cc34)c2C)no1 [Example 412, 6-chloro-N^4-{3,5-dimethyl-1-[(5-methyl-1,2-oxazol-3-yl)methyl]-1H-pyrazol-4-yl}-7-fluoroquinoline-2,4-dicarboxamide] | 2.1 |
